The results in this text go back to patent publication US9493438B2, “4,4-difluoro-piperidine-compounds” (ROTTAPHARM BIOTECH S.R.L., priority 2012, dated 2016).

The target of one assay is T1, human OX1 receptors (Homo sapiens, UniProt O43613).
T1 construct: expressed in transfected cells; host or cells: CHO cells
T1 sequence (O43613 1-425): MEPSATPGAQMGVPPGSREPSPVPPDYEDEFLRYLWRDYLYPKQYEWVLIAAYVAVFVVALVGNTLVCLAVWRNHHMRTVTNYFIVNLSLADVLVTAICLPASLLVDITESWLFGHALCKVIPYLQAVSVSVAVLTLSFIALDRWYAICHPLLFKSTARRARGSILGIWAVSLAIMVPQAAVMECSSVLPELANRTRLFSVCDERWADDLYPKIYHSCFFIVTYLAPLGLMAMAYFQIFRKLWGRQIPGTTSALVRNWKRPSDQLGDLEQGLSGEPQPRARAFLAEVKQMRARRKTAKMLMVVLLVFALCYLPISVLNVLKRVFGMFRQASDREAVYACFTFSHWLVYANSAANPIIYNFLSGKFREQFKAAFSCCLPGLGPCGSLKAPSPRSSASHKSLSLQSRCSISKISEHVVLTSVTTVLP
As to the kind of experiment: antagonistic activity against human OX1 receptor, [Ca2+]i fluorimetry in transfected CHO cells. It counts as cell-based. As to conditions: CHO cells transfected with human recombinant OX1; activated with orexin-A 3 nM; pKb = co-logarithm of apparent dissociation constant (modified Cheng Prusoff). How it is done: (§1) Thus the plate was loaded with the calcium dye (Fluo-4NW/probenecid in HBSS, Hepes 20 mM, pH 7.4; Invitrogen) at 37° C. for 60 min. Afterward the temperature was equilibrated at 22° C. for 15 min and the [Ca2+]i measured directly on the plate by using a fluorescent plate reader (CeliLux Perkin Elmer).
(§2) Invention compounds were dissolved in DMSO, diluted in HBSS (DMSO, 0.3% final) and added to the wells. After 5 min CHO cells were activated with orexin-A, 3 nM while HEK-293 cells were activated with orexin-B, 10 nM. […] The antagonistic activity has been expressed as pKb (co-logarithm of the apparent dissociation constant calculated by using the modified Cheng Prusoff equation). The results are expressed as percent of control specific […] response ((measured specific response/control specific agonist response)×100) obtained in the presence of the test compounds.
(§3) The IC50 values (concentration causing a half-maximal inhibition of the control specific agonist response) were determinated by non-linear regression analysis of the concentration curves generated with mean replicate values using hill equation curve fitting. The IC50 values are obtained by the arithmetical mean of at least two experiments.

A further assay addresses T2, human OX2 receptors (Homo sapiens, UniProt O43614).
T2 construct: expressed in transfected cells; host or cells: HEK-293 cells
T2 sequence (O43614 1-444): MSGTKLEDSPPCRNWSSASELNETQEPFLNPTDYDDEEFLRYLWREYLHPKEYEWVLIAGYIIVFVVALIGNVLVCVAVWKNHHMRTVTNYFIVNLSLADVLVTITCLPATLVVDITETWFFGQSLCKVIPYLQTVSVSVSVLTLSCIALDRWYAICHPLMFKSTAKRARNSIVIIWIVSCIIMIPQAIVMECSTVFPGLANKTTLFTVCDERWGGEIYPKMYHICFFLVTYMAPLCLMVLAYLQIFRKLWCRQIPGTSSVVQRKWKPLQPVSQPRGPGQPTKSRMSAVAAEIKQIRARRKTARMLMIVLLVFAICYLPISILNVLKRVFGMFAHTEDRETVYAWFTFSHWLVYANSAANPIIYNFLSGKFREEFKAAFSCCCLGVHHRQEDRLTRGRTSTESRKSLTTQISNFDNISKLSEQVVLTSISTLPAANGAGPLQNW
The experiment in a line: antagonistic activity against human OX2 receptor, [Ca2+]i fluorimetry in transfected HEK-293 cells. It counts as cell-based. The note with it: read-out: PKb OX2 (converted). How it is done:
as §1, §2, §3

For the compound `CN(C)c1ccc(-c2ccccc2)c(C(=O)N2CCC(F)(F)CC2CNc2ccc(Cl)cn2)c1` (racemic) [Compound 18, (RS)(2-(((5-chloropyridin-2-yl)amino)methyl)-4,4-difluoropiperidin-1-yl)(4-(dimethylamino)-[1,1′-biphenyl]-2-yl)methanone], the Kb was 31.6 nM on human OX1 receptors and 1000 nM on human OX2 receptors.
Taken in the same sequence, the figures for `Cc1ccc(-c2ccccc2)c(C(=O)N2CCC(F)(F)CC2CNc2ncc(C(F)(F)F)cc2F)n1` (racemic) [Compound 44, (RS)(4,4-difluoro-2-(((3-fluoro-5-(trifluoromethyl)pyridin-2-yl)amino)methyl)piperidin-1-yl)(6-methyl-3-phenylpyridin-2-yl)methanone] were 3.98 nM and 200 nM.
Taken in the same sequence, the figures for `Cc1ccc(OCC2CC2)c(C(=O)N2CCC(F)(F)C[C@H]2CNc2ccc(C(F)(F)F)cn2)n1` [Compound 46, (S)(3-(cyclopropylmethoxy)-6-methylpyridin-2-yl)(4,4-difluoro-2-(((5-(trifluoromethyl)pyridin-2-yl)amino)methyl)piperidin-1-yl)methanone] were 15.8 nM and 10000 nM.
`O=C(c1ncccc1-c1ccccc1)N1CCC(F)(F)CC1CNc1ccc(C(F)(F)F)cn1` (racemic) [Compound 51, (RS)(4,4-difluoro-2-((5-(trifluoromethylpyridin-2-yl)amino)methyl)piperidin-1-yl)(3-phenylpyridin-2-yl)methanone]: the figures for the Kb at human OX1 receptors and on human OX2 receptors were 6.31 nM and 10000 nM, respectively.
For `Cc1ccc(-c2ccccc2)c(C(=O)N2CCC(F)(F)CC2CNc2ccc(C(F)(F)F)cn2)n1` (single isomer, unassigned; isomer b) [Compound 38, (4,4-difluoro-2-(((5-(trifluoromethyl)pyridin-2-yl)amino)methyl)piperidin-1-yl)(6-methyl-3-phenylpyridin-2-yl)methanone (isomer B)], in that order: 3.16 nM and 126 nM.
Taken in the same sequence, the figures for `O=C(c1cccc2cccnc12)N1CCC(F)(F)CC1CNc1ccc(Cl)cn1` (single isomer, unassigned; isomer a) [Compound 26, (2-(((5-chloropyridin-2-yl)amino)methyl)-4,4-difluoropiperidin-1-yl)(quinolin-8-yl)methanone (isomer A)] were 1.58 nM and 10000 nM.
As for `Cc1ccc(-c2ncccn2)c(C(=O)N2CCC(F)(F)CC2CNc2ncc(C(F)(F)F)cc2F)n1` (single isomer, unassigned; isomer a) [Compound 32, (4,4-difluoro-2-(((3-fluoro-5-(trifluoromethyl)pyridin-2-yl)amino)methyl)piperidin-1-yl)(6-methyl-3-(pyrimidin-2-yl)pyridin-2-yl)methanone (isomer A)], the results for the Kb on human OX1 receptors and on human OX2 receptors were 2.51 nM and 10000 nM, respectively.
As for `Cc1ccc(-c2ccccc2)c(C(=O)N2CCC(F)(F)CC2CNc2ccc(C(F)(F)F)cn2)n1` (racemic) [Compound 36, (RS)(4,4-difluoro-2-(((5-(trifluoromethyl)pyridin-2-yl)amino)methyl)piperidin-1-yl)(6-methyl-3-phenylpyridin-2-yl)methanone], the Kb on human OX1 receptors is 3.16 nM; at human OX2 receptors it was 10000 nM.
For `Cc1ccc(-c2ccccc2)c(C(=O)N2CCC(F)(F)CC2CNc2cnc(C(F)(F)F)cn2)n1` (racemic) [Compound 43], in that order: 3.16 nM and 10000 nM.
For `O=C(c1nc(C(F)(F)F)ccc1-c1ncccn1)N1CCC(F)(F)CC1CNc1ccc(C(F)(F)F)cn1` (racemic) [Compound 39, (RS)(4,4-difluoro-2-(((5-(trifluoromethyl)pyridin-2-yl)amino)methyl)piperidin-1-yl)(3-(pyrimidin-2-yl)-6-(trifluoromethyl)pyridin-2-yl)methanone], in that order: 31.6 nM and 10000 nM.
